Assay results published in article PMC11796312, “Multifunctional, Fluorene‐Based Modulator of Cholinergic and GABAergic Neurotransmission as a Novel Drug Candidate for Palliative Treatment of Alzheimer's Disease” (Angewandte Chemie (International Ed. in English), 2024).
Where two headings read alike, the source gives them in different places.

Tests used:
Format in all cases: cell-based
[1] = biological target: T1, human serotonin 5-HT6 receptor (Homo sapiens, UniProt P50406); assay: cAMP 5-HT6 functional assay
T1 construct: host or cells: 1321N1
T1 sequence (P50406 whole entry): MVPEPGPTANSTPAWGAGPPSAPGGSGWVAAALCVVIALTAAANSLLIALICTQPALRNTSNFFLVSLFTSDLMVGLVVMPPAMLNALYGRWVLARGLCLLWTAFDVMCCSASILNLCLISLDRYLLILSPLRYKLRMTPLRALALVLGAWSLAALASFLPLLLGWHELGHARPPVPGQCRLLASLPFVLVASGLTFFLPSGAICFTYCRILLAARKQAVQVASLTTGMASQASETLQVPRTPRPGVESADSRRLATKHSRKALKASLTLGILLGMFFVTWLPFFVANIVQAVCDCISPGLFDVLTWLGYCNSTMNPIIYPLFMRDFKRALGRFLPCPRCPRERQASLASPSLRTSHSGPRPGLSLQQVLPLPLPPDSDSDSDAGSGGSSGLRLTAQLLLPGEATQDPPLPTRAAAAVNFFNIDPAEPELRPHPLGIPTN
Experimental: Functional assays for 5-HT6 receptor
Test compounds were dissolved in dimethyl sulfoxide (DMSO) at a concentration of 10 mM.
Serial dilutions were prepared in a 96-well microplate in assay buffer, and 8 concentrations
were tested. For the 5-HT6, adenylyl cyclase activity was monitored using cryopreserved
cells were resuspended in stimulation buffer (HBSS, 5 mM HEPES, 0.5 IBMX, and 0.1%
BSA at pH 7.4) at 2x10^5 cells/ml. The same volume (10 μl) of cell suspension was added to
the tested compounds. Samples were loaded onto a white opaque half-area 96-well
reference agonist for the 5-HT6 receptor. The agonist and antagonist were added
simultaneously. Cell stimulation was performed for 30 minutes at room temperature. After
incubation, cAMP measurements were performed with homogeneous TR-FRET immunoassay
using the LANCE Ultra cAMP kit (PerkinElmer, USA). The volume of 10 μl of EucAMP
Tracer Working Solution and 10 μl of ULight-anti-cAMP Tracer Working Solution were
added, mixed, and incubated for 1 h. The TR-FRET signal was read on an EnVision
microplate reader (PerkinElmer, USA). IC 50 and EC 50 were determined by nonlinear
regression analysis using GraphPad Prism 9.0 software.

[2] = system: mouse microglial cells SIM-A9; assay: MTT cell viability assay, SIM-A9; details: Mus musculus, SIM-A9, 24 h; read-out: IC50 (MTT) ± SEM
From the text: Human neuroblastoma cells SH-SY5Y and mouse microglial cells SIM-A9 were used to evaluate cell viability, intracellular RONS, and malondialdehyde (MDA; CAS No. 542–78-9).
SH-SY5y cells were cultivated in Dulbecco's modified Eagle's medium (DMEM; Biosera, Nuaille, France) supplemented with 10% fetal bovine serum (Biosera) and 1% penicillin-streptomycin antibiotic solution (Sigma-Aldrich, St. Louis, MO, USA). The culture medium for SIM-A9 cells was further supplemented with donor horse serum (Biosera). The cells were incubated at 37 °C in a CO2 incubator (BINDER CO2 incubator CB 160, Tuttlingen, Germany) and routinely passaged by trypsinization at 75 –85% confluence.
Colorimetric Cell Viability Assay
The toxicological indices IC 50 used in the present study were measured utilizing 3-(4,5-dimethylthiazol-2-yl)-2,5-diphenyl-tetrazolium bromide (MTT) reduction assay after (1 picture or pasted object on this page, not shown here)
24 h incubation with tested compounds. […]
incubation, the cultivation medium containing serially diluted substances was aspirated and replaced with a fresh medium containing MTT at a concentration of 0.5 mg/mL and subsequently incubated at 37 °C for 1 h. […] Cell viability was assessed spectrophotometrically by the amount of formazan produced. Absorbance was measured at 570 nm with 650 nm reference wavelength on Spark (Tecan Group Ltd, Switzerland). […]

mGAT2 = biological target: T2, mGAT2 (Mus musculus, UniProt P31651); assay: [3H]GABA uptake assay, mGAT2
T2 sequence (P31651 1-614): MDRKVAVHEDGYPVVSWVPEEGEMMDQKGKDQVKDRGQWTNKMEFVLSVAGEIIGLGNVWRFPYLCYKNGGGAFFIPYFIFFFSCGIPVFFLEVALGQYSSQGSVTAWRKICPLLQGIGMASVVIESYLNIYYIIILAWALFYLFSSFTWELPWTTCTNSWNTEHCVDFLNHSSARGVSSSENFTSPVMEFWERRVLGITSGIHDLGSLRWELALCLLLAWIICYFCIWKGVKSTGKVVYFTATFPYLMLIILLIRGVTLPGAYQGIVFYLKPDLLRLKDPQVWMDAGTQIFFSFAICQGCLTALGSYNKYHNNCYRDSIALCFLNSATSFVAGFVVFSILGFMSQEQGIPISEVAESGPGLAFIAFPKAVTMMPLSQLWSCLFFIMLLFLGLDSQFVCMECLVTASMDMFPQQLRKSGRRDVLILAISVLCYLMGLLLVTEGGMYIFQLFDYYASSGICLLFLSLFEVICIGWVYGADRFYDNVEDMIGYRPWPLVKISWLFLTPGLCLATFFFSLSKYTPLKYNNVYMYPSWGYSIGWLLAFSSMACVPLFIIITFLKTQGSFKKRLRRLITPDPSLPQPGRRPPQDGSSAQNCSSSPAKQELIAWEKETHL

mGAT3 = biological target: T3, mGAT3 (Mus musculus, UniProt P31649); assay: [3H]GABA uptake assay, mGAT3
T3 sequence (P31649 1-602): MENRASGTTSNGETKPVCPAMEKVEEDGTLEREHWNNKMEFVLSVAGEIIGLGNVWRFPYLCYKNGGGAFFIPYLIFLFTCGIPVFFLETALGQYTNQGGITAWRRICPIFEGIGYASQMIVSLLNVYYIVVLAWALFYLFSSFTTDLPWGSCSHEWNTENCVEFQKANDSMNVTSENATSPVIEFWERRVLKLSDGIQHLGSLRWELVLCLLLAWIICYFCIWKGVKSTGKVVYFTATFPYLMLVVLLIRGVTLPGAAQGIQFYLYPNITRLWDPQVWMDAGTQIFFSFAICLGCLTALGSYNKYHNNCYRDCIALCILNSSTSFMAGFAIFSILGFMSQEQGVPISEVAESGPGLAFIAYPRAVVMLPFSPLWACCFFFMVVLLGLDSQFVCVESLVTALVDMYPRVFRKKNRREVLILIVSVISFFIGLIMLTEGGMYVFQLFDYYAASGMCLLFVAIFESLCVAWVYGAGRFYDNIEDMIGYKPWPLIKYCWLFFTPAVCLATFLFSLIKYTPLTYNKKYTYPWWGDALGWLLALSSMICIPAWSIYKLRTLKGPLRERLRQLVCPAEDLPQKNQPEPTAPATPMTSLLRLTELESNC

**Q.** What does the source list for `O[C@H](CNCC1CC1)[C@H](Cc1ccccc1)NC1c2ccccc2-c2ccccc21` [Compound 6]?
**A.** EC50 [1]: 2.42 µM; Emax ([1]; read-out: 5-HT6 agonist mode E max % [10^-5 M]): 41%; Emax ([1]; read-out: 5-HT6 antagonist mode E max %): 3%; IC50 [2]: 6.46 ± 0.09 µM; IC50 (mGAT2): 10.7 µM; IC50 (mGAT3): 7.41 ± 0.69 µM
